Patent EP3900788A1, “NON-PRODUCTIVE ANGIOGENESIS INHIBITOR FOR USE IN THE TREATMENT OF ALZHEIMER'S DISEASE” (Consejo Superior de Investigaciones Científicas (CSIC), priority 2020, dated 2021)

System: APP751SL/+ mice
Assay: Sorafenib treatment of AD mice: angiogenic cell density and Aβ plaques (Thio-S staining) in brain
Assay type: in vivo
Settings: 7-month-old APP751SL/+ mice, Sorafenib treatment 1 month vs vehicle

CNC(=O)c1cc(Oc2ccc(NC(=O)Nc3ccc(Cl)c(C(F)(F)F)c3)cc2)ccn1 [Sorafenib]
Aβ plaque load (Thio-S staining of brain): significantly reduced
mean Aβ plaque area (Thio-S staining of brain): significantly reduced
apparition of Iαvβ3+ cells in the brain (Iαvβ3+ cell density) (p < 0.001): strongly reduced
